In ChEMBL document CHEMBL3352057, “Novel fluorinated pyrrolo[1,2-a]pyrazine-2,6-dione derivatives: synthesis and anticonvulsant evaluation in animal models of epilepsy” (Bioorg Med Chem, 2014):
Calls of active or inactive are those of the source. No cut-off for these calls is given here.

Assays:
[1] = test system: Mus musculus; experiment: Anticonvulsant activity in albino CF1 mouse assessed as protection against 32 mA current-induced seizures at 100 mg/kg, ip measured after 4 hrs; format: functional, organism-based; set-up: dose 100 mg/kg
[2] = test system: Mus musculus; experiment: Anticonvulsant activity in albino CF1 mouse assessed as protection against maximal electroshock-induced seizures at 100 mg/kg, ip measured after 0.5 hr; format: functional, organism-based; set-up: dose 100 mg/kg
[3] = test system: Mus musculus; experiment: Neurotoxicity in 32 mA current-induced seizure albino CF1 mouse model at 100 mg/kg, ip measured after 1 hr; format: toxicity, organism-based; set-up: dose 100 mg/kg, route intraperitoneal; conditions: in vivo
[4] = test system: Mus musculus; experiment: Anticonvulsant activity in albino CF1 mouse assessed as protection against subcutaneous metrazol-induced seizures at 100 mg/kg, ip measured after 1 hr; format: functional, organism-based; set-up: dose 100 mg/kg
[5] = test system: Mus musculus; experiment: Neurotoxicity in albino CF1 mouse at 100 mg/kg, ip measured after 1 hr; format: toxicity, organism-based; set-up: dose 100 mg/kg, route intraperitoneal; conditions: in vivo
[6] = test system: Mus musculus; experiment: Neurotoxicity in albino CF1 mouse at 100 mg/kg, ip measured after 0.25 hr; format: toxicity, organism-based; set-up: dose 100 mg/kg, route intraperitoneal; conditions: in vivo
[7] = test system: Rattus norvegicus; experiment: Neurotoxicity in MES Sprague-Dawley rat model at 30 mg/kg, po measured after 0.25 hr; format: toxicity, organism-based; set-up: dose 30 mg/kg, route oral; conditions: in vivo
[8] = test system: Rattus norvegicus; experiment: Neurotoxicity in MES Sprague-Dawley rat model at 30 mg/kg, po measured after 4 hrs; format: toxicity, organism-based; set-up: dose 30 mg/kg, route oral; conditions: in vivo
[9] = test system: Rattus norvegicus; experiment: Neurotoxicity in MES Sprague-Dawley rat model at 30 mg/kg, po measured after 1 hr; format: toxicity, organism-based; set-up: dose 30 mg/kg, route oral; conditions: in vivo
[10] = test system: Mus musculus; experiment: Anticonvulsant activity in albino CF1 mouse assessed as protection against 32 mA current-induced seizures at 100 mg/kg, ip measured after 2 hrs; format: functional, organism-based; set-up: dose 100 mg/kg
[11] = test system: Rattus norvegicus; experiment: Anticonvulsant activity in Sprague-Dawley rat assessed as protection against maximal electroshock-induced seizures at 30 mg/kg, ip measured after 2 hrs; format: functional, organism-based; set-up: dose 30 mg/kg
[12] = test system: Mus musculus; experiment: Anticonvulsant activity in albino CF1 mouse assessed as protection against 32 mA current-induced seizures at 100 mg/kg, ip measured after 0.25 hr; format: functional, organism-based; set-up: dose 100 mg/kg
[13] = test system: Mus musculus; experiment: Anticonvulsant activity in albino CF1 mouse assessed as protection against subcutaneous metrazol-induced seizures at 100 mg/kg, ip measured after 0.25 hr; format: functional, organism-based; set-up: dose 100 mg/kg
[14] = test system: Mus musculus; experiment: Neurotoxicity in 32 mA current-induced seizure albino CF1 mouse model at 100 mg/kg, ip measured after 2 hrs; format: toxicity, organism-based; set-up: dose 100 mg/kg, route intraperitoneal; conditions: in vivo
[15] = test system: Rattus norvegicus; experiment: Neurotoxicity in MES Sprague-Dawley rat model at 30 mg/kg, ip measured after 2 hrs; format: toxicity, organism-based; set-up: dose 30 mg/kg, route intraperitoneal; conditions: in vivo
[16] = test system: Rattus norvegicus; experiment: Anticonvulsant activity in Sprague-Dawley rat assessed as protection against maximal electroshock-induced seizures at 30 mg/kg, ip measured after 4 hrs; format: functional, organism-based; set-up: dose 30 mg/kg
[17] = test system: Rattus norvegicus; experiment: Anticonvulsant activity in Sprague-Dawley rat assessed as protection against maximal electroshock-induced seizures at 30 mg/kg, ip measured after 0.25 hr; format: functional, organism-based; set-up: dose 30 mg/kg
[18] = test system: Rattus norvegicus; experiment: Anticonvulsant activity in Sprague-Dawley rat assessed as protection against maximal electroshock-induced seizures at 30 mg/kg, po measured after 0.25 hr; format: functional, organism-based; set-up: dose 30 mg/kg
[19] = test system: Rattus norvegicus; experiment: Anticonvulsant activity in Sprague-Dawley rat assessed as protection against maximal electroshock-induced seizures at 30 mg/kg, po measured after 1 hr; format: functional, organism-based; set-up: dose 30 mg/kg
[20] = test system: Rattus norvegicus; experiment: Anticonvulsant activity in Sprague-Dawley rat assessed as protection against maximal electroshock-induced seizures at 30 mg/kg, po measured after 0.5 hr; format: functional, organism-based; set-up: dose 30 mg/kg
[21] = test system: Mus musculus; experiment: Anticonvulsant activity in albino CF1 mouse assessed as protection against subcutaneous metrazol-induced seizures at 100 mg/kg, ip measured after 4 hrs; format: functional, organism-based; set-up: dose 100 mg/kg
[22] = test system: Rattus norvegicus; experiment: Neurotoxicity in MES Sprague-Dawley rat model at 30 mg/kg, ip measured after 1 hr; format: toxicity, organism-based; set-up: dose 30 mg/kg, route intraperitoneal; conditions: in vivo
[23] = test system: Mus musculus; experiment: Neurotoxicity in 32 mA current-induced seizure albino CF1 mouse model at 100 mg/kg, ip measured after 0.5 hr; format: toxicity, organism-based; set-up: dose 100 mg/kg, route intraperitoneal; conditions: in vivo
[24] = test system: Mus musculus; experiment: Neurotoxicity in albino CF1 mouse at 100 mg/kg, ip measured after 4 hrs; format: toxicity, organism-based; set-up: dose 100 mg/kg, route intraperitoneal; conditions: in vivo
[25] = test system: Rattus norvegicus; experiment: Anticonvulsant activity in Sprague-Dawley rat assessed as protection against maximal electroshock-induced seizures at 30 mg/kg, po measured after 4 hrs; format: functional, organism-based; set-up: dose 30 mg/kg
[26] = test system: Mus musculus; experiment: Anticonvulsant activity in albino CF1 mouse assessed as protection against 32 mA current-induced seizures at 100 mg/kg, ip measured after 1 hr; format: functional, organism-based; set-up: dose 100 mg/kg
[27] = test system: Mus musculus; experiment: Anticonvulsant activity in albino CF1 mouse assessed as protection against 32 mA current-induced seizures at 100 mg/kg, ip measured after 0.5 hr; format: functional, organism-based; set-up: dose 100 mg/kg
[28] = test system: Rattus norvegicus; experiment: Neurotoxicity in MES Sprague-Dawley rat model at 30 mg/kg, ip measured after 0.5 hr; format: toxicity, organism-based; set-up: dose 30 mg/kg, route intraperitoneal; conditions: in vivo
[29] = test system: Mus musculus; experiment: Neurotoxicity in 32 mA current-induced seizure albino CF1 mouse model at 100 mg/kg, ip measured after 0.25 hr; format: toxicity, organism-based; set-up: dose 100 mg/kg, route intraperitoneal; conditions: in vivo
[30] = test system: Mus musculus; experiment: Anticonvulsant activity in albino CF1 mouse assessed as protection against maximal electroshock-induced seizures at 100 mg/kg, ip measured after 4 hrs; format: functional, organism-based; set-up: dose 100 mg/kg
[31] = test system: Rattus norvegicus; experiment: Neurotoxicity in MES Sprague-Dawley rat model at 30 mg/kg, ip measured after 0.25 hr; format: toxicity, organism-based; set-up: dose 30 mg/kg, route intraperitoneal; conditions: in vivo
[32] = test system: Rattus norvegicus; experiment: Neurotoxicity in MES Sprague-Dawley rat model at 30 mg/kg, po measured after 2 hrs; format: toxicity, organism-based; set-up: dose 30 mg/kg, route oral; conditions: in vivo
[33] = test system: Rattus norvegicus; experiment: Anticonvulsant activity in Sprague-Dawley rat assessed as protection against maximal electroshock-induced seizures at 30 mg/kg, ip measured after 0.5 hr; format: functional, organism-based; set-up: dose 30 mg/kg
[34] = test system: Rattus norvegicus; experiment: Neurotoxicity in MES Sprague-Dawley rat model at 30 mg/kg, po measured after 0.5 hr; format: toxicity, organism-based; set-up: dose 30 mg/kg, route oral; conditions: in vivo
[35] = test system: Rattus norvegicus; experiment: Neurotoxicity in MES Sprague-Dawley rat model at 30 mg/kg, ip measured after 4 hrs; format: toxicity, organism-based; set-up: dose 30 mg/kg, route intraperitoneal; conditions: in vivo
[36] = test system: Mus musculus; experiment: Anticonvulsant activity in albino CF1 mouse assessed as protection against maximal electroshock-induced seizures at 100 mg/kg, ip measured after 1 hr; format: functional, organism-based; set-up: dose 100 mg/kg
[37] = test system: Rattus norvegicus; experiment: Anticonvulsant activity in Sprague-Dawley rat assessed as protection against maximal electroshock-induced seizures at 30 mg/kg, po measured after 2 hrs; format: functional, organism-based; set-up: dose 30 mg/kg
[38] = test system: Mus musculus; experiment: Anticonvulsant activity in albino CF1 mouse assessed as protection against subcutaneous metrazol-induced seizures at 100 mg/kg, ip measured after 0.5 hr; format: functional, organism-based; set-up: dose 100 mg/kg
[39] = test system: Mus musculus; experiment: Neurotoxicity in 32 mA current-induced seizure albino CF1 mouse model at 100 mg/kg, ip measured after 4 hrs; format: toxicity, organism-based; set-up: dose 100 mg/kg, route intraperitoneal; conditions: in vivo
[40] = test system: Mus musculus; experiment: Neurotoxicity in albino CF1 mouse at 100 mg/kg, ip measured after 0.5 hr; format: toxicity, organism-based; set-up: dose 100 mg/kg, route intraperitoneal; conditions: in vivo
[41] = test system: Mus musculus; experiment: Anticonvulsant activity in albino CF1 mouse assessed as protection against maximal electroshock-induced seizures at 100 mg/kg, ip measured after 0.25 hr; format: functional, organism-based; set-up: dose 100 mg/kg
[42] = test system: Rattus norvegicus; experiment: Anticonvulsant activity in Sprague-Dawley rat assessed as protection against maximal electroshock-induced seizures at 30 mg/kg, ip measured after 1 hr; format: functional, organism-based; set-up: dose 30 mg/kg
[43] = Protective index, ratio of TD50 for neurotoxicity in ip dosed Sprague-Dawley rat to ED50 for anticonvulsant activity in ip dosed MES Sprague-Dawley rat model; format: toxicity, organism-based; conditions: in vivo, read-out: Ratio TD50/ED50
[44] = test system: Rattus norvegicus; experiment: Anticonvulsant activity in ip dosed Sprague-Dawley rat assessed as protection against subcutaneous metrazol-induced seizures; format: functional
[45] = test system: Rattus norvegicus; experiment: Anticonvulsant activity in ip dosed Sprague-Dawley rat assessed as protection against maximal electroshock-induced seizures; format: functional
[46] = test system: Rattus norvegicus; experiment: Anticonvulsant activity in ip dosed Sprague-Dawley rat assessed as protection against maximal electroshock-induced seizures measured as time to peak effect; format: functional
[47] = Neurotoxicity in ip dosed Sprague-Dawley rat; format: toxicity, organism-based; conditions: in vivo
[48] = test system: Mus musculus; experiment: Anticonvulsant activity in albino CF1 mouse assessed as protection against subcutaneous metrazol-induced seizures at 300 mg/kg, ip measured after 0.5 hr; format: functional, organism-based; set-up: dose 300 mg/kg
[49] = test system: Mus musculus; experiment: Neurotoxicity in albino CF1 mouse at 300 mg/kg, ip measured after 0.5 hr; format: toxicity, organism-based; set-up: dose 300 mg/kg, route intraperitoneal; conditions: in vivo

## O=C1NC(=O)[C@@H](c2cccc(C(F)(F)F)c2)N2CCCC[C@H]12
[1]
  Activity: inactive
[2]
  Activity: inactive
[3]
  Activity: Non-toxic
[4]
  Activity: inactive
[5]
  Activity: Non-toxic
[6]
  Activity: Non-toxic
[7]
  Activity: Non-toxic
[8]
  Activity: Non-toxic
[9]
  Activity: Non-toxic
[10]
  Activity: inactive
[11]
  Activity: inactive
[12]
  Activity: Active
[13]
  Activity: inactive
[14]
  Activity: Non-toxic
[15]
  Activity: Non-toxic
[16]
  Activity: inactive
[17]
  Activity: inactive
[18]
  Activity: inactive
[19]
  Activity: inactive
[20]
  Activity: inactive
[21]
  Activity: inactive
[22]
  Activity: Non-toxic
[23]
  Activity: Non-toxic
[24]
  Activity: Non-toxic
[25]
  Activity: inactive
[26]
  Activity: Active
[27]
  Activity: Active
[28]
  Activity: Non-toxic
[29]
  Activity: Non-toxic
[30]
  Activity: inactive
[31]
  Activity: Non-toxic
[32]
  Activity: Non-toxic
[33]
  Activity: inactive
[34]
  Activity: Non-toxic
[35]
  Activity: Non-toxic
[36]
  Activity: Active
[37]
  Activity: inactive
[38]
  Activity: inactive
[39]
  Activity: Non-toxic
[40]
  Activity: Non-toxic
[41]
  Activity: inactive
[42]
  Activity: inactive

## O=C1NC(=O)[C@@H]2CCCN2[C@H]1c1ccccc1F
[2]
  Activity: Active
[4]
  Activity: inactive
[5]
  Activity: Non-toxic
[6]
  Activity: Toxic
[7]
  Activity: Non-toxic
[8]
  Activity: Non-toxic
[9]
  Activity: Non-toxic
[11]
  Activity: inactive
[13]
  Activity: Active
[15]
  Activity: Non-toxic
[16]
  Activity: inactive
[17]
  Activity: inactive
[18]
  Activity: inactive
[19]
  Activity: inactive
[20]
  Activity: inactive
[21]
  Activity: inactive
[22]
  Activity: Non-toxic
[24]
  Activity: Non-toxic
[25]
  Activity: inactive
[28]
  Activity: Non-toxic
[30]
  Activity: inactive
[31]
  Activity: Non-toxic
[32]
  Activity: Non-toxic
[33]
  Activity: inactive
[34]
  Activity: Non-toxic
[35]
  Activity: Non-toxic
[36]
  Activity: inactive
[37]
  Activity: inactive
[38]
  Activity: inactive
[40]
  Activity: Non-toxic
[41]
  Activity: inactive
[42]
  Activity: inactive

## O=C1NC(=O)C(c2ccccc2)(c2ccccc2)N1 [PHENYTOIN]
[43]
  selectivity ratio: 6.4
[44]
  ED50: > 430 µmol/kg
[45]
  ED50: 10 µmol/kg
[46]
  Time: 0.25 h
[47]
  TD50: 66 µmol/kg

## O=C1NC(=O)[C@@H](c2cccc(C(F)(F)F)c2)N2CCC[C@@H]12
[2]
  Activity: inactive
[5]
  Activity: Non-toxic
[6]
  Activity: Toxic
[48]
  Activity: Active
[21]
  Activity: inactive
[24]
  Activity: Non-toxic
[30]
  Activity: inactive
[49]
  Activity: Toxic
[36]
  Activity: inactive
[38]
  Activity: inactive
[40]
  Activity: Non-toxic
[41]
  Activity: inactive
